In US12448372B2, “Class of triaromatic compounds targeting bifunctional phosphorylation site of STAT3 and applications thereof” (SHANGHAI YUYAO BIOTECH LTD., priority 2019, dated 2025):
Like-named read-outs stand apart in the source and are kept apart here.

Assays:
Huh7 = experiment: Cell proliferation by MTS method, Huh7; assay type: cell-based; details: Table 1, Huh7, read-out: Tumour cell proliferative activity/IC50(nM) Liver Cancer Huh7
Text: (§1) (2) Detection of Cell Proliferation by MTS Method
(§2) The MTS assay is a method for indirectly determining the number of living cells via colourimetric method. MTS is a newly synthesised tetrazole compound that reflects cell viability, which can be reduced by succinate dehydrogenase in the mitochondria of living cells to an orange-coloured formazan with an absorbance of the reduced product measured at 490 nm being in proportion to the number of living cells, thus reflecting the cell viability. This assay can be used to evaluate the effect of the compound on the proliferation of pancreatic cancer cells, thereby determining the inhibitory effect of the compound on the proliferation of pancreatic cancer cells and to calculate the IC^50. Each cells were inoculated uniformly into a 96-well plate at a density of 1-20×10^3 cells/well, 100 μL per well, and placed in a constant temperature incubator until the cells adhered to the wall. The control group was added with the corresponding medium and the experimental groups were given different concentrations of the compound prepared by the examples of the present invention, and the cells were taken out 24-96 h after administration for observing the cell state under a microscope. Under light-proof conditions, MTS was added and well mixed, the mixture was placed in a constant temperature incubator at 37° C., and the light absorption value were measured using an enzyme marker at 490 nm and the experiment was repeated for three times, IC50 was calculated with GraphPad5 Prism software.

Capan-2 = experiment: Cell proliferation by MTS method, Capan-2; assay type: cell-based; details: for improvement of anti-tumor proliferative activity over OPB51602 and IACS-010759: pancreatic cancer cells, FIG. 5B
Text: as §1, §2

STAT3 protein = STAT3 protein (Homo sapiens, UniProt P40763); experiment: Binding activity to STAT3 protein by microscale thermophoresis (MST); details: purified STAT3 recombinant protein
Sequence of STAT3 protein (P40763 whole entry): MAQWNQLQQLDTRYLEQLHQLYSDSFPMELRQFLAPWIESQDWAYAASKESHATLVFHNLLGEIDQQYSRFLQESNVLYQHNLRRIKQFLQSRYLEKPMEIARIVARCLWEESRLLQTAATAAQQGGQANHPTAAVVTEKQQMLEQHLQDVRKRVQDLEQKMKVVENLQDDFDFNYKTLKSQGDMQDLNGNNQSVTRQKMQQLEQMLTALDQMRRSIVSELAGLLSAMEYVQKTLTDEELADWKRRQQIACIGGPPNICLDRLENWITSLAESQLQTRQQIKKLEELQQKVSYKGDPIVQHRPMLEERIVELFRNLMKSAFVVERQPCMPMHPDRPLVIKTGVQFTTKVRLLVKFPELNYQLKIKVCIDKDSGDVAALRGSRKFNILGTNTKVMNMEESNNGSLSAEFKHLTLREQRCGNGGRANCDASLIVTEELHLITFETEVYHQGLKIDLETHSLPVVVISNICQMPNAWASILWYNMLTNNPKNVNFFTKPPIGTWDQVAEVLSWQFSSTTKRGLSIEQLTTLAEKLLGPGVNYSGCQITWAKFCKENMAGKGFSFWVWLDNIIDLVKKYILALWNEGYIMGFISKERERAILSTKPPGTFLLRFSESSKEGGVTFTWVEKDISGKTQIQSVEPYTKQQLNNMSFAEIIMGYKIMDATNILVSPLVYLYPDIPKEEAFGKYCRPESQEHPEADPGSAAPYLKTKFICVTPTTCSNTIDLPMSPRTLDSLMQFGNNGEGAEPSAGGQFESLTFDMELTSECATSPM
Text: (1) Determination of Binding Activities of Compounds to STAT3 Protein by Microscale Thermophoresis (MST) Method
The microscale thermophoresis (MST) technique is a simple, rapid, and accurate method for quantifying biomolecular interactions. It can measure the movement of molecules in a microscopic temperature gradient field, as well as detect changes of molecular hydration shell, charge and size. When the Nanotemper microscale thermophoresis instrument locally heated by a infrared laser, molecules will move in a directional manner, then the molecular distribution ratio in the temperature gradient field are analyzed by a fluorescence to detect whether a small molecule compound binds to a target protein. The experimental operation is as follows: firstly, compounds to be tested are diluted in a gradient using MST test buffer, total 16 concentrations being configured; subsequently, the purified STAT3 recombinant protein is labeled using the HIS tag labeling kit, and the final concentration of the labeled protein is 100-200 nM; the labeled STAT3 proteins are well mixed with the diluted compounds and incubated and protected from light for 30 minutes; finally the samples were loaded by capillary tube and detected on the instrument. The binding constants (K^D) of small molecules to STAT3 protein were analyzed by Mo. analysis software.

HCC827 = experiment: Cell proliferation by MTS method, HCC827; assay type: cell-based; details: Table 1, HCC827, read-out: Tumour cell proliferative activity/IC50(nM) Lung Cancer HCC827
Text: as §1, §2

MKN45 = experiment: Cell proliferation by MTS method, MKN45; assay type: cell-based; details: Table 1, MKN45, read-out: Tumour cell proliferative activity/IC50(nM) gastric Cancer MKN45
Text: as §1, §2

[1] = Homo sapiens, Table 1, Capan-2, read-out: Tumour cell proliferative activity/IC50(nM) Pancreatic Cancer Capan-2
[2] = Homo sapiens, Capan-2, FIG. 5B, read-out: IC50, inhibition of proliferation of pancreatic cancer cells

Kd (STAT3 protein)	IC50 (Huh7; Homo sapiens, Huh-7)	IC50 (HCC827; Homo sapiens)	IC50 (MKN45; Homo sapiens, MKN-45)	Structure (SMILES)	IC50 (Huh7)	IC50 (Capan-2; Table 1, Capan-2, read-out: Tumour cell proliferative activity/IC50(nM) Pancreatic Cancer Capan-2)	IC50 (HCC827)	IC50 (MKN45)	IC50 (Capan-2; [1])	IC50 (Capan-2; [2])	improvement of anti-tumor proliferative activity over OPB51602 and IACS-010759 (Capan-2)
< 10 nM	< 10 nM	< 10 nM	< 10 nM	Cn1c(C(=O)N2CCN(Cc3ccc(OCC(F)(F)F)cc3)CC2)cc2ccc(Oc3cnc(-c4nc(-c5ccc(F)cc5)no4)cn3)cc21 [Example 2, (6-((5-(3-(4-fluorophenyl)-1,2,4-oxadiazol-5-yl)pyrazin-2-yl)oxy)-1-methyl-1H-indol-2-yl)(4-(4-(2,2,2-trifluoroethoxy)benzyl)piperazin-1-yl)methanone]					< 10 nM		
< 10 nM	< 10 nM	< 10 nM	< 10 nM	Cn1c(C(=O)N2CCN(Cc3ccc(OCC(F)(F)F)cc3)CC2)cc2ccc(Oc3cnc(-c4nc(-c5ccccc5F)no4)cn3)cc21 [Example 3, (6-((5-(3-(2-fluorophenyl)-1,2,4-oxadiazol-5-yl)pyrazin-2-yl)oxy)1-methyl-1H-indol-2-yl)(4-(4-(2,2,2-trifluoroethoxy)benzyl)piperazin-1-yl)methanone]					< 10 nM		
< 10 nM	< 10 nM	< 10 nM	< 10 nM	Cn1c(C(=O)N2CCN(Cc3ccc(OCC(F)(F)F)cc3)CC2)cc2ccc(Oc3cnc(-c4nc(-c5cccc(F)c5)no4)cn3)cc21 [Example 4, (6-((5-(3-(3-fluorophenyl)-1,2,4-oxadiazol-5-yl)pyrazin-2-yl)oxy)1-methyl-1H-indol-2-yl)(4-(4-(2,2,2-trifluoroethoxy)benzyl)piperazin-1-yl)methanone]					< 10 nM		
< 10 nM	< 10 nM	< 10 nM	< 10 nM	COc1ccc(-c2noc(-c3cnc(Oc4ccc5cc(C(=O)N6CCN(Cc7ccc(OCC(F)(F)F)cc7)CC6)n(C)c5c4)cn3)n2)cc1 [Example 5, (6-((5-(3-(4-methoxyphenyl)-1,2,4-oxadiazol-5-yl)pyrazin-2-yl)oxy)1-methyl-1H-indol-2-yl)(4-(4-(2,2,2-trifluoroethoxy)benzyl)piperazin-1-yl)methanone]					< 10 nM		
< 1 nM	< 1 nM	< 1 nM	< 1 nM	Cn1c(C(=O)N2CCN(Cc3ccc(OCC(F)(F)F)cc3)CC2)cc2ccc(Oc3cnc(-c4nc(-c5ccccc5C(F)(F)F)no4)cn3)cc21 [Example 7, (6-((5-(3-(2-(trifluoromethyl)phenyl)-1,2,4-oxadiazol-5-yl)pyrazin-2-yl)oxy)-1-methyl-1H-indol-2-yl)(4-(4-(2,2,2-trifluoroethoxy)benzyl)piperazin-1-yl)methanone]					< 1 nM	0.49 nM	10 times
< 1 nM	< 1 nM	< 1 nM	< 1 nM	Cn1c(C(=O)N2CCN(Cc3ccc(OCC(F)(F)F)cc3)CC2)cc2ccc(Oc3cnc(-c4nc(-c5cccc(C(F)(F)F)c5)no4)cn3)cc21 [Example 8, (6-((5-(3-(3-(trifluoromethyl)phenyl)-1,2,4-oxadiazol-5-yl)pyrazin-2-yl)oxy)-1-methyl-1H-indol-2-yl)(4-(4-(2,2,2-trifluoroethoxy)benzyl)piperazin-1-yl)methanone]					< 1 nM	0.34 nM	10 times
< 10 nM	< 10 nM	< 10 nM	< 10 nM	COc1ccccc1-c1noc(-c2cnc(Oc3ccc4cc(C(=O)N5CCN(Cc6ccc(OCC(F)(F)F)cc6)CC5)n(C)c4c3)cn2)n1 [Example 9, (6-((5-(3-(2-methoxyphenyl)-1,2,4-oxadiazol-5-yl)pyrazin-2-yl)oxy)-1-methyl-1H-indol-2-yl) (4-(4-(2,2,2-trifluoroethoxy)benzyl)piperazin-1-yl)methanone]					< 10 nM		
< 10 nM	< 10 nM	< 10 nM	< 10 nM	COc1cccc(-c2noc(-c3cnc(Oc4ccc5cc(C(=O)N6CCN(Cc7ccc(OCC(F)(F)F)cc7)CC6)n(C)c5c4)cn3)n2)c1 [Example 10, (6-((5-(3-(3-methoxyphenyl)-1,2,4-oxadiazol-5-yl)pyrazin-2-yl)oxy)-1-methyl-1H-indol-2-yl) (4-(4-(2,2,2-trifluoroethoxy)benzyl)piperazin-1-yl)methanone]					< 10 nM		
< 10 nM	< 10 nM	< 10 nM	< 10 nM	Cn1c(C(=O)N2CCN(Cc3ccc(OCC(F)(F)F)cc3)CC2)cc2ccc(Oc3cnc(-c4nc(-c5ccc(Cl)cc5)no4)cn3)cc21 [Example 11, (6-((5-(3-(4-chlorophenyl)-1,2,4-oxadiazol-5-yl)pyrazin-2-yl)oxy)-1-methyl-1H-indol-2-yl) (4-(4-(2,2,2-trifluoroethoxy)benzyl)piperazin-1-yl)methanone]					< 10 nM		
< 10 nM	< 10 nM	< 10 nM	< 10 nM	Cn1c(C(=O)N2CCN(Cc3ccc(OCC(F)(F)F)cc3)CC2)cc2ccc(Oc3cnc(-c4nc(-c5ccc(Br)cc5)no4)cn3)cc21 [Example 12, (6-((5-(3-(4-bromophenyl)-1,2,4-oxadiazol-5-yl)pyrazin-2-yl)oxy)-1-methyl-1H-indol-2-yl) (4-(4-(2,2,2-trifluoroethoxy)benzyl)piperazin-1-yl)methanone]					< 10 nM		
< 10 nM	< 10 nM	< 10 nM	< 10 nM	Cn1c(C(=O)N2CCN(Cc3ccc(OCC(F)(F)F)cc3)CC2)cc2ccc(Oc3cnc(-c4nc(-c5ccc(OC(F)(F)F)cc5)no4)cn3)cc21 [Example 13, (6-((5-(3-(4-(trifluoromethoxy)phenyl)-1,2,4-oxadiazol-5-yl)pyrazin-2-yl)oxy)-1-methyl-1H-indol-2-yl) (4-(4-(2,2,2-trifluoroethoxy)benzyl)piperazin-1-yl)methanone]					< 10 nM		
< 100 nM	< 100 nM	< 100 nM	< 100 nM	O=C(c1cc2ccc(Oc3cnc(-c4nc(-c5ccc(C(F)(F)F)cc5)no4)cn3)cc2[nH]1)N1CCN(Cc2ccc(OCC(F)(F)F)cc2)CC1 [Example 14, (6-((5-(3-(4-(trifluoromethyl)phenyl)-1,2,4-oxadiazol-5-yl)pyrazin-2-yl)oxy)-1H-indol-2-yl) (4-(4-(2,2,2-trifluoroethoxy)benzyl)piperazin-1-yl)methanone]					< 100 nM		
< 10 nM	< 10 nM	< 10 nM	< 10 nM	CCn1c(C(=O)N2CCN(Cc3ccc(OCC(F)(F)F)cc3)CC2)cc2ccc(Oc3cnc(-c4nc(-c5ccc(C(F)(F)F)cc5)no4)cn3)cc21 [Example 15, (1-ethyl-6-((5-(3-(4-(trifluoromethyl)phenyl)-1,2,4-oxadiazol-5-yl)pyrazin-2-yl)oxy)-1H-indol-2-yl)(4-(4-(2,2,2-trifluoromethoxy)benzyl)piperazin-1-yl)methanone]					< 10 nM		

Structure (SMILES)	Kd (STAT3 protein)	IC50 (Huh7; Homo sapiens, Huh-7)	IC50 (HCC827; Homo sapiens)	IC50 (MKN45; Homo sapiens, MKN-45)	IC50 (Huh7)	IC50 (Capan-2; Table 1, Capan-2, read-out: Tumour cell proliferative activity/IC50(nM) Pancreatic Cancer Capan-2)	IC50 (HCC827)	IC50 (MKN45)	IC50 (Capan-2; [1])	IC50 (Capan-2; [2])	improvement of anti-tumor proliferative activity over OPB51602 and IACS-010759 (Capan-2)
Cn1c(C(=O)N2CCN(Cc3ccc(OCC(F)(F)F)cc3)CC2)cc2ccc(Oc3cnc(-c4nc(-c5ccccc5)no4)cn3)cc21 [Example 1, 1-methyl-(6-((5-(3-phenyl-1,2,4-oxadiazol-5-yl)pyrazin-2-yl)oxy)-1H-indol-2-yl)(4-(4-(2,2,2-trifluoroethoxy)benzyl)piperazin-1-yl)methanone]	< 10 nM				< 10 nM	< 10 nM	< 10 nM	< 10 nM			
